From PubChem BioAssay (NCI)
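Tested at 5 concentrations; 48 h exposure; 96-well plates; endpoints linearly interpolated, else capped at highest concentration. GI50: concentration for 50% inhibition of growth. The concentration for full growth arrest is given as TGI.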

Tests used:
Experiment in all cases: NCI tumour cell line growth inhibition, 48 h
[1] = system: HT29 colon
[2] = system: A498 renal
[3] = system: MCF7 breast
[4] = system: NCI/ADR-RES ovarian
[5] = system: 786-0 renal
[6] = system: SW-620 colon
[7] = system: SR leukemia
[8] = system: HCT-15 colon
[9] = system: M14 melanoma
[10] = system: UACC-257 melanoma
[11] = system: OVCAR-4 ovarian
[12] = system: OVCAR-8 ovarian
[13] = system: BT-549 breast
[14] = system: SK-MEL-5 melanoma
[15] = system: HCC-2998 colon
[16] = system: NCI-H460 lung
[17] = system: HS 578T breast
[18] = system: SF-539 CNS
[19] = system: UO-31 renal
[20] = system: MALME-3M melanoma
[21] = system: IGROV1 ovarian
[22] = system: OVCAR-5 ovarian
[23] = system: SN12C renal
[24] = system: SF-295 CNS
[25] = system: CAKI-1 renal
[26] = system: SK-OV-3 ovarian
[27] = system: RXF 393 renal
[28] = system: HOP-92 NSCLC
[29] = system: ACHN renal
[30] = system: UACC-62 melanoma
[31] = system: MDA-MB-435
[32] = system: NCI-H23 lung
[33] = system: HOP-62 NSCLC
[34] = system: SK-MEL-28 melanoma
[35] = system: LOX IMVI melanoma
[36] = system: DU-145 prostate
[37] = system: SF-268 CNS
[38] = system: T-47D breast
[39] = system: COLO 205 colon
[40] = system: CCRF-CEM leukemia
[41] = system: K-562 leukemia
[42] = system: SNB-19 CNS
[43] = system: RPMI-8226 leukemia
[44] = system: NCI-H522 lung
[45] = system: HL-60(TB) leukemia
[46] = system: PC-3 prostate
[47] = system: HCT-116 colon
[48] = system: KM12 colon
[49] = system: MOLT-4 leukemia
[50] = system: A549 NSCLC
[51] = system: MDA-MB-231 breast
[52] = system: TK-10 renal
[53] = system: U251 CNS
[54] = system: EKVX NSCLC
[55] = system: SNB-75 CNS
[56] = system: NCI-H226 lung
[57] = system: SK-MEL-2 melanoma

## CC(=O)/C(N=Nc1ccc2oc(=O)ccc2c1)=C(\C)O
[1]
  GI50: 2.96 µM
  TGI: 12.7 µM
[2]
  GI50: 2.34 µM
  TGI: 10.4 µM
[3]
  GI50: 2.49 µM
  TGI: 13 µM
[4]
  GI50: 0.29 µM
  TGI: 13.2 µM
[5]
  GI50: 5.31 µM
  TGI: 17.4 µM
[6]
  GI50: 3.15 µM
  TGI: 13.7 µM
[7]
  GI50: 1.67 µM
  TGI: 7.73 µM
[8]
  GI50: 0.495 µM
  TGI: 13.7 µM
[9]
  GI50: 2.77 µM
  TGI: 15.7 µM
[10]
  GI50: 3.36 µM
  TGI: 14.8 µM
[11]
  GI50: 3.81 µM
  TGI: 18.7 µM
[12]
  GI50: 2.72 µM
  TGI: 13.6 µM
[13]
  GI50: 3.12 µM
  TGI: 8.52 µM
[14]
  GI50: 2.09 µM
  TGI: 4.92 µM
[15]
  GI50: 3.99 µM
  TGI: 15.7 µM
[16]
  GI50: 2.11 µM
  TGI: 12.1 µM
[17]
  GI50: 3.64 µM
  TGI: 19 µM
[18]
  GI50: 4.11 µM
  TGI: 14.1 µM
[19]
  GI50: 0.355 µM
  TGI: 11.8 µM
[20]
  GI50: 3 µM
  TGI: 13.6 µM
[21]
  GI50: 2.93 µM
  TGI: 16.3 µM
[22]
  GI50: 5.04 µM
  TGI: 18.4 µM
[23]
  GI50: 2.58 µM
  TGI: 14.7 µM
[24]
  GI50: 2.22 µM
  TGI: 12.7 µM
[25]
  GI50: 2.16 µM
  TGI: 14.6 µM
[26]
  GI50: 4.31 µM
  TGI: 15.1 µM
[27]
  GI50: 2.99 µM
  TGI: 16.3 µM
[28]
  GI50: 2.46 µM
  TGI: 7.43 µM
[29]
  GI50: 0.553 µM
  TGI: 11.9 µM
[30]
  GI50: 2.64 µM
  TGI: 12.2 µM
[31]
  GI50: 3.88 µM
  TGI: 15.5 µM
[32]
  GI50: 3.37 µM
  TGI: 15.8 µM
[33]
  GI50: 3.62 µM
  TGI: 16.3 µM
[34]
  GI50: 4.53 µM
  TGI: 16.4 µM
[35]
  GI50: 2.92 µM
  TGI: 12.4 µM
[36]
  GI50: 4.71 µM
  TGI: 19 µM
[37]
  GI50: 5.14 µM
  TGI: 21.1 µM
[38]
  GI50: 1.84 µM
  TGI: 9.19 µM
[39]
  GI50: 1.76 µM
  TGI: 3.39 µM
[40]
  GI50: 1.65 µM
  TGI: 13.4 µM
[41]
  GI50: 0.528 µM
  TGI: 17 µM
[42]
  GI50: 3.39 µM
  TGI: 15 µM
[43]
  GI50: 1.89 µM
  TGI: 11.4 µM
[44]
  GI50: 2.12 µM
  TGI: 10.8 µM
[45]
  GI50: 1.12 µM
  TGI: 9.15 µM
[46]
  GI50: 2.73 µM
  TGI: 12.3 µM
[47]
  GI50: 2.23 µM
  TGI: 12 µM
[48]
  GI50: 3.36 µM
  TGI: 13.7 µM
[49]
  GI50: 2.66 µM
  TGI: 12.7 µM
[50]
  GI50: 3.2 µM
  TGI: 13.3 µM
[51]
  GI50: 4.77 µM
  TGI: 18.1 µM
[52]
  GI50: 2.35 µM
  TGI: 12.7 µM
[53]
  GI50: 2.77 µM
  TGI: 12.5 µM
[54]
  GI50: 2.72 µM
  TGI: 15.1 µM
[55]
  GI50: 5 µM
  TGI: 18.6 µM
[56]
  GI50: 2.48 µM
  TGI: 15.2 µM

## COc1cc(/C=C/C(=O)c2ccc(C)cc2)ccc1Oc1nc(NCCO)nc(N2CCOCC2)n1
[2]
  GI50: > 100 µM
  TGI: > 100 µM
[4]
  GI50: 2.08 µM
  TGI: 4.57 µM
[7]
  GI50: 1.06 µM
  TGI: 7.16 µM
[10]
  GI50: 3.98 µM
  TGI: > 100 µM
[11]
  GI50: 3.92 µM
  TGI: > 100 µM
[17]
  GI50: 4.6 µM
  TGI: > 100 µM
[22]
  GI50: 3.22 µM
  TGI: > 100 µM
[25]
  GI50: 5.02 µM
  TGI: > 100 µM
[26]
  GI50: 23 µM
  TGI: > 100 µM
[28]
  GI50: 8.4 µM
  TGI: > 100 µM
[57]
  GI50: 8.17 µM
  TGI: > 100 µM
[31]
  GI50: 3.31 µM
  TGI: > 100 µM
[33]
  GI50: 16.6 µM
  TGI: > 100 µM
[35]
  GI50: 0.43 µM
  TGI: 1.5 µM
[36]
  GI50: 3.79 µM
  TGI: > 100 µM
[37]
  GI50: 2.9 µM
  TGI: > 100 µM
[38]
  GI50: 2.98 µM
  TGI: > 100 µM
[40]
  GI50: 2.71 µM
  TGI: > 100 µM
[41]
  GI50: 1.53 µM
  TGI: > 100 µM
[43]
  GI50: 1.72 µM
  TGI: 6.02 µM
[50]
  GI50: 9.47 µM
  TGI: > 100 µM
[51]
  GI50: 2.98 µM
  TGI: > 100 µM
[52]
  GI50: > 100 µM
  TGI: > 100 µM
[54]
  GI50: 3.9 µM
  TGI: > 100 µM
[55]
  GI50: > 100 µM
  TGI: > 100 µM
[56]
  GI50: 6.28 µM
  TGI: > 100 µM
